{"source": "ChEMBL document CHEMBL1121769", "about": "“5'Chloropuromycin. Inhibition of protein synthesis and antitrypanosomal activity” (J Med Chem, 1981)", "test_system": "Mus musculus", "assay": "Tested for inhibitory activity against CT strain of Trypanosoma rhodesiense infected mice after administration at 106 mg/kg; Not active; call rule not given here", "type": "functional, organism-based", "design": "dose 106 mg/kg", "data": [{"smiles": "COc1ccc(CC(N)C(=O)NC2C(C)OC(n3cnc4c(N(C)C)ncnc43)C2O)cc1", "note": "(stereo unspecified)", "values": [{"measurement": "IC50", "value": "Not Active"}]}]}
